Source: patent US20250144067A1, “PERSONALIZED STARVATION THERAPY FOR CANCER” (Faeth Therapeutics, Inc., priority 2021, published 2025)
Like-named read-outs stand apart in the source and are kept apart here.

How the values were obtained:
[1] = test system: NCI-H292 lung cancer cells; assay: FDA drug screening, complete media vs cholesterol-free media without statin (TABLE 1); assay type: cell-based, human
[2] = test system: NCI-H292 lung cancer cells; assay: FDA drug screening, complete media vs cholesterol-free media with simvastatin (TABLE 2); assay type: cell-based, human
[3] = NCI-H292 cells, cholesterol-free media without statin
[4] = complete vs cholesterol-free media, […]
[5] = NCI-H292 cells, FDA library drug in cholesterol-free media with simvastatin 0.04 μM
[6] = NCI-H292 cells, FDA library drug in complete media
[7] = complete media vs cholesterol-free media + simvastatin (0.04 μM), […]
[8] = NCI-H292 cells, cholesterol-free media without statin, FDA drug library screen
[9] = NCI-H292 cells, complete media, FDA drug library screen
[10] = NCI-H292 cells, FDA drug library screen, cholesterol-free media with simvastatin 0.04 μM
[11] = NCI-H292 cells, FDA drug library screen, complete media
[12] = complete media minus cholesterol-free media + simvastatin, >0 enhanced anti-cancer activity, about 0 neutral, <0 antagonist
[13] = Complete minus Cholesterol-free, >0 enhanced anti-cancer activity, about 0 neutral, <0 antagonist
[14] = NCI-H292 cells, cholesterol-free media with simvastatin 0.04 μM, FDA drug library screen (TABLE 2)
[15] = NCI-H292 cells, complete media, FDA drug library screen (TABLE 2)
[16] = complete media minus cholesterol-free media + simvastatin (0.04 μM), >0 enhanced anti-cancer activity, about 0 neutral, <0 antagonist
[17] = NCI-H292 cells, drug in cholesterol-free media with simvastatin 0.04 μM
[18] = NCI-H292 cells, drug in complete media
[19] = complete vs cholesterol-free media, greater than 0 enhanced anti-cancer activity, about 0 neutral, below 0 antagonists
[20] = Complete minus Cholesterol-free, greater than 0 enhanced anti-cancer activity, about 0 neutral, below 0 antagonists
[21] = NCI-H292 cells in cholesterol-free media without statin
[22] = NCI-H292 cells in complete media
[23] = complete media vs cholesterol-free media + simvastatin (0.04 μM), >0 enhanced anti-cancer activity, about 0 neutral, <0 antagonist
[24] = Complete minus Cholesterol-free, greater than 0 enhanced anti-cancer activity, about 0 neutral, below 0 antagonist
[25] = NCI-H292 cells, FDA drug library screen, cholesterol-free media without statin

CCC(=O)O[C@H]1CC[C@H]2[C@@H]3CCC4=CC(=O)CC[C@]4(C)[C@H]3CC[C@]12C [Testosterone propionate]
Cholesterol-free [1, 3]: 1.308
Complete ([1]; NCI-H292 cells, complete media): 0.9212
Difference [1, 4]: −0.39
Cholesterol-free media + simvastatin (0.04 μM) [2, 5]: 1.059
Complete Media [2, 6]: 0.7669
Difference [2, 7]: −0.29

CNC(=O)c1cc(Oc2ccc(NC(=O)Nc3ccc(Cl)c(C(F)(F)F)c3)cc2)ccn1 [Sorafenib]
Cholesterol-free [1, 8]: 0.8045
Complete [1, 9]: 1.015
Difference ([1]; complete vs cholesterol-free media, >0 enhanced anti-cancer activity, about 0 neutral, <0 antagonist): 0.21
Cholesterol-free media + simvastatin (0.04 μM) [2, 10]: 0.7364
Complete Media [2, 11]: 0.915
Difference [2, 12]: 0.18

N[C@@H](CSCC(=O)O)C(=O)O [Carbocisteine]
Difference [1, 13]: −0.04
Cholesterol-free [1, 8]: 1.486
Complete [1, 9]: 1.447
Cholesterol-free media + simvastatin (0.04 μM) [2, 14]: 0.934
Complete Media [2, 15]: 0.9494
Difference [2, 16]: 0.02

Cc1cc(C2=NOC(c3cc(Cl)cc(Cl)c3)(C(F)(F)F)C2)ccc1C(=O)NCC(=O)NCC(F)(F)F (centres unmarked) [Fluralaner]
Cholesterol-free [1, 8]: 0.6434
Complete [1, 9]: 1.375
Difference [1, 4]: 0.73
Cholesterol-free media + simvastatin (0.04 μM) [2, 17]: 1.609
Complete Media [2, 18]: 1.41
Difference [2, 7]: −0.20

CC(C)CN(C[C@@H](O)[C@H](Cc1ccccc1)NC(=O)O[C@H]1CO[C@H]2OCC[C@H]21)S(=O)(=O)c1ccc(N)cc1 [Darunavir]
Cholesterol-free [1]: 1.103
Complete [1]: 0.8067
Difference [1]: −0.30
Cholesterol-free media + simvastatin (0.04 μM) [2]: 0.9174
Complete Media [2]: 0.7724
Difference [2]: −0.14

CCOC(=O)C1=C(C)NC(C)=C(C(=O)OC)C1c1cccc([N+](=O)[O-])c1 (centres unmarked) [Nitrendipine]
Cholesterol-free [1, 3]: 1.587
Complete ([1]; NCI-H292 cells, complete media): 1.208
Difference [1, 19]: −0.38
Cholesterol-free media + simvastatin (0.04 μM) [2, 14]: 1.103
Complete Media [2, 15]: 1.042
Difference [2, 16]: −0.06

COC1=CC(=O)C[C@@H](C)[C@]12Oc1c(Cl)c(OC)cc(OC)c1C2=O [Griseofulvin]
Difference [1, 20]: −0.63
Cholesterol-free [1, 21]: 1.326
Complete [1, 22]: 0.6963
Cholesterol-free media + simvastatin (0.04 μM) [2, 17]: 1.385
Complete Media [2, 18]: 1.224
Difference [2, 23]: −0.16

O=C(CCCCCCC(=O)Nc1ccccc1)NO [Vorinostat]
Difference [1, 24]: −0.17
Cholesterol-free [1, 25]: 0.4861
Complete [1, 11]: 0.3154
Cholesterol-free media + simvastatin (0.04 μM) [2, 17]: 0.872
Complete Media [2, 18]: 0.635
Difference [2, 23]: −0.24

C#CCN[C@H]1CCc2ccccc21 [(S)-Rasagiline]
Difference [1, 13]: 0.05
Cholesterol-free [1, 8]: 1.001
Complete [1, 9]: 1.048
Cholesterol-free media + simvastatin (0.04 μM) [2, 5]: 1.283
Complete Media [2, 6]: 0.8996
Difference [2, 23]: −0.38

CO[C@@]1(NC(=O)Cc2cccs2)C(=O)N2C(C(=O)O)=C(COC(N)=O)CS[C@@H]21 [Cefoxitin (sodium)]
Difference [1, 20]: −0.48
Cholesterol-free [1, 21]: 1.299
Complete [1, 22]: 0.8161
Cholesterol-free media + simvastatin (0.04 μM) [2, 14]: 0.9202
Complete Media [2, 15]: 0.8818
Difference [2, 16]: −0.04

Cc1cc(NS(=O)(=O)c2ccc(N)cc2)no1 [Sulfamethoxazole]
Cholesterol-free [1, 3]: 1.301
Complete ([1]; NCI-H292 cells, complete media): 0.8647
Difference [1, 19]: −0.44
Cholesterol-free media + simvastatin (0.04 μM) [2, 17]: 1.223
Complete Media [2, 18]: 1.051
Difference [2, 23]: −0.17

CC(=O)Nc1ccc(OC(=O)c2ccccc2OC(C)=O)cc1 [Benorilate]
Cholesterol-free [1, 3]: 1.212
Complete ([1]; NCI-H292 cells, complete media): 0.8832
Difference [1, 19]: −0.33
Cholesterol-free media + simvastatin (0.04 μM) [2, 10]: 1.253
Complete Media [2, 11]: 1.11
Difference [2, 23]: −0.14

O=C(NCC(O)CO)c1c(I)c(C(=O)NCC(O)CO)c(I)c(N(CCO)C(=O)CO)c1I (centres unmarked) [Ioversol]
Difference [1, 24]: −0.10
Cholesterol-free [1, 25]: 1.162
Complete [1, 11]: 1.064
Cholesterol-free media + simvastatin (0.04 μM) ([2]; NCI-H292 cells, cholesterol-free media with simvastatin 0.04 μM, cell growth value in FDA drug screen): 1.012
Complete Media ([2]; NCI-H292 cells, complete media, cell growth value in FDA drug screen): 1.097
Difference [2, 12]: 0.09

CCOc1ccc(Cc2cc([C@@H]3O[C@H](CO)[C@@H](O)[C@H](O)[C@H]3O)ccc2Cl)cc1
Complete ([1]; NCI-H292 cells, complete media): 0.6259
Difference [1, 19]: −0.32
Cholesterol-free media + simvastatin (0.04 μM) [2, 10]: 0.9312
Complete Media [2, 11]: 1.177
Difference [2, 12]: 0.25
